Where “and” joins values, the source holds several entries; their conditions need not be identical. Identical values can stand only once.
Legend:
[1] = MTT assay, non-toxic dose range of CA; format: cell-based; conditions: human, Caco-2 cells, CA 100 μM, vs untreated cells, read-out: cell viability
Method: Caco-2 were cultured in EMEM complete medium containing 10% FBS, 1% non-essential amino acids, and 1% penicillin-streptomycin double antibody, and the culture conditions were 37 °C, 5% CO2, in a constant temperature incubator [16]. We first established non-toxic dose ranges of CA in Caco-2 cells using MTT assay. Dimethylsulfoxide (DMSO) was used as the vehicle to deliver CA to the cells. The final concentration of DMSO in all experiments was 0.1% (v/v) in cell culture media. Caco-2 cells were seeded in a 96-well plate at a cell density of 5 × 10^4 cells/mL per well, and cultured under 5% CO2 and 37 °C for 24 h. A quantity of 200 μL of medium was added to each well to obtain a series of CA solutions (concentrations of 25, 50, 75, and 100 μmoL). After 48 h of treatment, Caco-2 cells were subjected to the MTT assay as described previously. For the transport study, Caco-2 cells were seeded on the apical compartment (AP) of 12-well Transwell plates at a density of 2 × 10^5 cells/mL. The complete culture medium was added into basolateral (BL) and AP compartments. The basolateral medium was replaced every other day.

[2] = cited from earlier work
[3] = Tissue distribution of CA in mice by HPLC after oral gavage; format: in vivo; conditions: 50 mg/kg/daily oral gavage 7 days, 4 h after last gavage
Source text: (§1) The animal experiment protocol was approved by the Institutional Animal Care and Use Committee of Guangzhou Medical University (#GY2020-067, 30 July 2020). Male ICR mice aged 5–6 weeks were kept in a specific-pathogen-free environment with 12-h light/dark cycles. […] Both groups were allowed to eat and drink ad libitum. Four hours after the last gavage, the mice were anesthetized, and their eyeballs were removed for blood collection. They were sacrificed and immediately dissected in the supine position. Serum, major organs (heart, liver, lung, stomach, spleen, kidney, small intestine, cecum, and colon), and the contents of the stomach, small intestine, cecum, and colon were collected, weighed, and stored at −80 °C.
Tissue samples and the contents of the digestive tract were homogenized in ultrapure water at 55 Hz for 8 min. Tissue/content homogenate (1 mL) or serum (100 μL) was mixed with 1 mL of 50% methanol, and the mixture was vortexed for 2 min. The mixture was extracted with ethyl acetate three times (6, 3, and 3 mL of ethyl acetate) and vortexed again for 2 min. The sample was centrifuged at 5000 rpm/min at 4 °C for 15 min, and the upper organic phase was dried under vacuum. Then, it was dissolved in 5% phosphoric acid methanol solution and filtered through a 0.22 μm microporous membrane. Concentrations of CA in serum, tissue, and content samples were determined using HPLC. CA standard was added to all samples, and the recovery rate was calculated. The chromatographic conditions for HPLC analysis were as follows: C18 chromatographic column: 5 μm, 150 × 4.6 mm; column temperature: 25 °C; mobile phase: methanol/0.1% phosphoric acid solution at 85%/15%; flow rate: 1.0 mL/min; detection wavelength: 230 nm; injection volume: 10 μL.

[4] = Body weight, organ weights and appearance of CA-fed mice; format: in vivo; conditions: 50 mg/kg/daily oral gavage
Source text: as §1

CC(C)c1cc2c(c(O)c1O)[C@@]1(C(=O)O)CCCC(C)(C)[C@@H]1CC2 [CA, Carnosic acid]
viability at 48 h, 100 μM [1]: > 90%
toxicity of orally administered CA ([2]; 64.3 and 90 mg/kg oral): nontoxic
circulating concentration ([2]; rats, 4 h after oral gavage): 0.39 µg/mL
main elimination route ([2]; rats, oral 64.3 ± 5.8 mg/kg): fecal excretion
overall bioavailability ([2]; rats, oral): 40–65%
Concentration of CA in Cecal content [3]: 0.15 nmol/g or mL and 0.15 ± 0.00 nmol/g or mL
Concentration of CA in Cecum [3]: 2965.1 nmol/g or mL and 2965.10 ± 3.31 nmol/g or mL
Concentration of CA in Colon [3]: 179.4 nmol/g or mL and 179.43 ± 0.26 nmol/g or mL
Concentration of CA in Colonic content [3]: 74.54 nmol/g or mL and 74.54 ± 0.21 nmol/g or mL
Concentration of CA in Gastric content [3]: 1.08 nmol/g or mL and 1.08 ± 0.00 nmol/g or mL
Concentration of CA in Heart [3]: 0.75 ± 0.00 nmol/g or mL
Concentration of CA in Kidney [3]: 0.66 ± 0.02 nmol/g or mL
Concentration of CA in Liver [3]: 10.56 ± 0.01 nmol/g or mL
Concentration of CA in Lung [3]: 1.68 ± 0.00 nmol/g or mL
Concentration of CA in Serum [3]: 15.22 ± 0.02 nmol/g or mL
Concentration of CA in Small intestine [3]: 1.87 nmol/g or mL and 1.87 ± 0.00 nmol/g or mL
Concentration of CA in Small intestine content [3]: 13.93 nmol/g or mL and 13.93 ± 0.01 nmol/g or mL
Concentration of CA in Spleen [3]: 13.42 ± 0.01 nmol/g or mL
Concentration of CA in Stomach [3]: 35.98 ± 0.09 nmol/g or mL
concentration at 4 h ([3]; male, ICR, mouse, serum, read-out: CA detected in serum): 15.2 µM
adverse effects [4]: not associated with noticeable adverse effects
body weight and weights of liver and spleen, CA-fed vs control mice [4]: no significant difference
Body Weight ([4]; week 1): 33.2 ± 0.9 g
Body Weight ([4]; week 2): 34.8 ± 2.5 g
Body Weight ([4]; week 3): 37.1 ± 1.8 g
Body Weight ([4]; week 4): 38.9 ± 2.4 g
Body Weight ([4]; week 5): 41.2 ± 3.1 g

Source: article PMC8698657, “Absorption and Transport Characteristics and Mechanisms of Carnosic Acid” (Biology, 2021)
